From PMC6273595, “Study of the Activity and Possible Mechanism of Action of a Reversible Inhibitor of Recombinant Human KAT-2: A Promising Lead in Neurodegenerative and Cognitive Disorders” (Molecules, 2016) come the findings set out here.

Like-named read-outs stand apart in the source and are kept apart here.

Experiment [1] deals with T1, KAT-2 (kynurenine aminotransferase-2) (Homo sapiens, UniProt Q8N5Z0).
T1 construct: gene AADAT; recombinant KAT-2
Kind of experiment: HPLC assay of KYN to KYNA conversion by recombinant human KAT-2. In kind it is biochemical.

Experiment [2] concerns the target T1, KAT-2 (kynurenine aminotransferase-2). Kind of experiment: HPLC assay of KYN to KYNA conversion by recombinant human KAT-2, % inhibition at […]. In kind it is biochemical.

T1 sequence (Q8N5Z0 30-425): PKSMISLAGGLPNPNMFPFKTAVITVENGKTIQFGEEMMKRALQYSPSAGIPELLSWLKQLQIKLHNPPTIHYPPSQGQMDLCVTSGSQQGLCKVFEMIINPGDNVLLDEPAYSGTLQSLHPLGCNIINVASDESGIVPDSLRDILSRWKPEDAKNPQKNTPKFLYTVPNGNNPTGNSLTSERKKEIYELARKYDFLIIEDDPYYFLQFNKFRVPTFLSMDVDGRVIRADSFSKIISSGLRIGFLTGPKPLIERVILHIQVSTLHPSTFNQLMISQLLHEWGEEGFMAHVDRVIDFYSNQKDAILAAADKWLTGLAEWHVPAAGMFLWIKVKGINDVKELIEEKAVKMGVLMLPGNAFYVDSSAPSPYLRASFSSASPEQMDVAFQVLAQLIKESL

Usually IC50 stands for the midpoint of a concentration-inhibition curve. As for `C[C@H]1COc2c(N3CCN(N)CC3)c(F)cc3c(=O)c(C(=O)O)cn1c23` [BFF-122], in experiment [1] (read-out: IC50), the half-inhibitory concentration (IC50) was 15 to 20 µM.

With `N[C@H]1Cc2ccccc2N(O)C1=O` [PF-04859989], the IC50 in experiment [1] was 1 to 3 µM.

One may read the inhibition as how much of the control response was suppressed. Regarding `CCS(=O)(=O)c1ccc(C(=O)C[C@H](N)C(=O)O)cc1` [(S)-ESBA, (S)-4-(Ethylsulfonyl)benzoylalanine], the inhibition at 200 µM in experiment [2] came out at 20%.
